Assay results published in PMC11288129, “Diversely evolved xibalbin variants from remipede venom inhibit potassium channels and activate PKA-II and Erk1/2 signaling” (BMC Biology, 2024).
Entries after “also recorded” stand apart in the source; their conditions may differ. Positions of bridges follow the written chain, without caps; N, C: chain ends. No end group written: not given here.

System: Erk1/2 (T202/Y204) in rat DRG neurons
Experiment: High-content imaging of pERK1/2 in DRG sensory neurons
Assay type: cell-based
Conditions: for pErk1/2 activation: 5 and 30 min, 0.005 to 0.8 µg/µL; for pErk1/2 response by neuron size: xibalbins 0.8 µg/µL
Procedure: To gauge sensory neuron activity in response to various activating stimuli, including electrical activity, phosphorylation state detection of protein kinase A type II (PKA-II) and MAP kinase Erk1/2 can act as surrogate measurements. Consequently, we tested for increased phosphorylation states in a concentration-dependent manner following exposure to xibalbins. Dissociated DRG neurons were cultured overnight and then exposed to increasing concentrations of the corresponding xibalbins for 5 min and 30 min, respectively. As a positive control, forskolin (Fsk) was also used to induce cAMP synthesis. The activity of PKA-II was monitored by antibodies directed against the phosphorylation site of the inhibitory regulatory subunits RIIα/β, which is exclusively accessible when the catalytic kinase domain is released during kinase activation. For measuring Erk1/2 activity, phospho-sites on Erk1/2 (T202/Y204) were monitored through immunofluorescence, as these sites are phosphorylated during activation. Cellular images were captured using HCI microscopy (Fig. 8A), and the average intensity of each phospho-antibody was quantified (Fig. 8B).
Fig. 8 A Representative images of rat DRG neurons stimulated with PBS (Ctrl) and xib1b (0.8 µg/µL). Cells were stained for UCHL1, pRII, pERK1/2, and Hoechst followed by fixation and staining with standard immunocytochemistry protocols. Green-encircled neurons indicate automatically selected objects. Scale bar: 100 µm. B Mean intensities of UCHL1, pRII, and pERK1/2. The same UCHL1 intensities were observed among tested groups. Forskolin (Fsk), an activator of adenylyl cyclase, was used as a positive control. Fsk at 6 µM concentration induced an increase in pRII and pERK1/2 intensities at 5 and 30 min. Number of analyzed cells per replica: 750 ± 200. Eight independent replicas. C–F Concentration responses of xibalbin toxins (0.005 to 0.8 µg/µL) and mean intensities of pRII and pERK1/2 at 5 min and 30 min. G–H Size versus pRII and pErk1/2 intensities of cells treated with 0.8 µg/µL of xib1 and xib13. Small-sized cells were responding to xibalbins. Statistical significance was assessed using one-way ANOVA with Dunnett’s post hoc test. Data represent mean ± S.E.M (standard error of the mean), n = 4, see “Methods” for details and Additional File 6: Table S2 for individual data values
Male Sprague Dawley rats (250–400 g, 8–16 weeks old) were obtained from Envigo. Rats were kept in 12 h of light/darkness cycles. All experiments were performed in accordance with the German animal welfare law with permission of the District Government for Nature and Environment, NRW (84–02.05.20.13.045, 4.18.003). Rats were scarified by slow inhalation of CO2 which was followed by decapitation. DRGs were extracted from rats, deheated, pooled, and incubated in Neurobasal A/B27 medium (Invitrogen, #12349–015) supplemented with B-27 (Invitrogen #17504), L-glutamine 1:400, L-glutamate 1:270.3, and penicillin/streptomycin 1:100 containing 0.2 U/mL collagenase P (collagenase P, Roche, #1213857) and incubated for 1 h at 37 °C, 5% CO2. DRGs were dissociated with pasteur pipettes and axon stumps were separated by BSA (Sigma-Aldrich, # A2153-100G) gradient centrifugation (14% BSA, 120 g, 8 min). Cells were resuspended in NBA medium, plated in 96-well imaging plate (Greiner BioOne Sensoplate, Black, #655896) precoated with poly-L-ornithine hydrochloride (0.1 mg/ml Sigma, #P2533)/laminin (5 µg/ml Invitrogen, #23017–015), and incubated overnight at 37 °C, 5% CO2.
DRGs were stimulated after overnight incubation. Compounds were prepared as tenfold concentrated stock solutions, diluted in PBS (PAA, cat# H15-002), in v-bottom plates; 50 µL media from culture wells were mixed with the […] stock solutions, and 50 µL added back to the respective wells. Stimulation was performed with automated multichannel pipette and cells were kept in heated block during the stimulation. […]

[1] = 30 min, 0.8 µg/µL (xib13 148 µM, q = 4.32; xib1 154 µM, q = 4.07)

| Sequence | pErk1/2 activation | increase in pErk1/2 signal (5 min, 0.8 µg/µL (148 µM), q = 4.54) | increase in pErk1/2 signal [1] [fold] | pErk1/2 response by neuron size |
| --- | --- | --- | --- | --- |
| KRSCIRRFGRCDHRPNDCCYNSSCRCNLWGSNCRCQRMGLFQKWGK (disulfide 4-19, 11-24, 18-35, 26-33) [xib13] | increase PKA-II and Erk1/2 sensitization signaling; also recorded: increased PKA-II and pErk1/2 activity | up to 2.5 fold | ≤ 2.3 | increased phosphorylation signals in both small-sized and large-sized sensory neurons |
| RLFCIRHHKYCGHRPKRCCSGLFCRCNTFGTNCRCQSKGALGKLI (disulfide 4-19, 11-24, 18-35, 26-33) [xib1] | increase PKA-II and Erk1/2 sensitization signaling; also recorded: increased PKA-II and pErk1/2 activity | – | 2.17 | increased phosphorylation signals in both small-sized and large-sized sensory neurons |
